For the test, the target named is GST-Bcl-2 (Homo sapiens (Human), UniProt P10415). The test is described as follows: Time Resolved-Fluorescence Resonance Energy Transfer (TR-FRET) Bcl-2 binding assay. To be noted: GST-Bcl-2 1 nM, F-Bak peptide probe 100 nM, Tb-anti-GST antibody 1 nM; Ki by Wang's equation. Summed up: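 Ki values derived from TR-FRET displacement of F-Bak peptide from GST-Bcl-2, detected with Tb-labelled anti-GST antibody (ex 340, em 520/495 nm). Compound dilution series started at 50 μM (2× starting concentration); room-temperature incubation 3 hours.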
GST-Bcl-2, sequence (P10415 whole entry): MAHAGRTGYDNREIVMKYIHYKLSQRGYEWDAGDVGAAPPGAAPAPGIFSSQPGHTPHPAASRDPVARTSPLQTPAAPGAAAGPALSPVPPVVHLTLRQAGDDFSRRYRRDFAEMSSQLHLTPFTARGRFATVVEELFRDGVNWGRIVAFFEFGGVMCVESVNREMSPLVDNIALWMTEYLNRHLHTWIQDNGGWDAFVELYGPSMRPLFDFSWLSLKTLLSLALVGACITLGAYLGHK
For orientation: TR-FRET usually uses a lanthanide donor and a delayed reading to cut background.
In general, Ki refers to the dissociation constant of the complex between target and ligand, obtained from inhibition or displacement. Lower therefore signals higher affinity. In the case of `CNC(=O)c1cccc(Oc2cc(N3CCN(Cc4ccccc4-c4ccc(Cl)cc4)CC3)ccc2C(=O)NS(=O)(=O)c2ccc(NCCCN3CCOCC3)c([N+](=O)[O-])c2)c1` [Example 103, 4-(4-((4′-chlorobiphenyl-2-yl)methyl)piperazin-1-yl)-2-(3-(methylcarbamoyl)phenoxy)-N-(4-(3-morpholinopropylamino)-3-nitrophenylsulfonyl)benzamide], the Ki was determined as 6.75 nM.

In turn, `CN1CCC(Nc2ccc(S(=O)(=O)NC(=O)c3ccc(N4CCN(CC5=C(c6ccc(Cl)cc6)CC(C)(C)OC5)CC4)cc3Oc3ccccc3Cl)cc2[N+](=O)[O-])CC1` [Example 38, 2-(2-chlorophenoxy)-4-(4-((4-(4-chlorophenyl)-6,6-dimethyl-5,6-dihydro-2H-pyran-3-yl)methyl)piperazin-1-yl)-N-((4-((1-methylpiperidin-4-yl)amino)-3-nitrophenyl)sulfonyl)benzamide] showed a Ki of 0.013 nM.

`CC1(C)CCC(CN2CCN(c3ccc(C(=O)NS(=O)(=O)c4ccc(NCC5CCC(F)(F)CC5)c([N+](=O)[O-])c4)c(Oc4cc5cc[nH]c5cc4F)c3)CC2)=C(c2ccc(Cl)cc2)C1` [Example 411, 4-(4-{[2-(4-chlorophenyl)-4,4-dimethylcyclohex-1-en-1-yl]methyl}piperazin-1-yl)-N-[(4-{[(4,4-difluorocyclohexyl)methyl]amino}-3-nitrophenyl)sulfonyl]-2-[(6-fluoro-1H-indol-5-yl)oxy]benzamide] registered an inhibition constant Ki of 21.3 nM. Against the preceding compound, the Ki is about 1600-fold higher.

In turn, `CC1(C)CCC(CN2CCN(c3ccc(C(=O)NS(=O)(=O)c4ccc(NCC5CCOCC5)c([N+](=O)[O-])c4)c(Oc4ccnc(NC(=O)OC(C)(C)C)c4)c3)CC2)=C(c2ccc(Cl)cc2)C1` [Example 280, tert-butyl 4-(5-(4-{[2-(4-chlorophenyl)-4,4-dimethylcyclohex-1-en-1-yl]methyl}piperazin-1-yl)-2-{[({3-nitro-4-[(tetrahydro-2H-pyran-4-ylmethyl)amino]phenyl}sulfonyl)amino]carbonyl}phenoxy)pyridin-2-ylcarbamate] showed a Ki of 7.55 nM.

Turning to `CC1(C)CCC(CN2CCN(c3ccc(C(=O)NS(=O)(=O)c4ccc(NCC5CCOCC5)c([N+](=O)[O-])c4)c(Oc4cc5cc[nH]c5cc4Cl)c3)CC2)=C(c2ccc(Cl)cc2)C1` [Example 276, 2-[(6-chloro-1H-indol-5-yl)oxy]-4-(4-{[2-(4-chlorophenyl)-4,4-dimethylcyclohex-1-en-1-yl]methyl}piperazin-1-yl)-N-({3-nitro-4-[(tetrahydro-2H-pyran-4-ylmethyl)amino]phenyl}sulfonyl)benzamide], the Ki amounted to 0.199 nM.

`N#Cc1ccc(Oc2cc(N3CCN(Cc4ccccc4-c4ccc(Cl)cc4)CC3)ccc2C(=O)NS(=O)(=O)c2ccc(NCC3CCOCC3)c([N+](=O)[O-])c2)cc1` [Example 72, 4-(4-((4′-chloro-1,1′-biphenyl-2-yl)methyl)piperazin-1-yl)-2-(4-cyanophenoxy)-N-((3-nitro-4-((tetrahydro-2H-pyran-4-ylmethyl)amino)phenyl)sulfonyl)benzamide] yielded a Ki of 31.7 nM.

`Cc1nc2cc(Oc3cc(N4CCN(Cc5ccccc5-c5ccc(Cl)cc5)CC4)ccc3C(=O)NS(=O)(=O)c3ccc(NCC4CCOCC4)c([N+](=O)[O-])c3)ccc2s1` [Example 90, 4-(4-((4′-chloro-1,1′-biphenyl-2-yl)methyl)piperazin-1-yl)-2-((2-methyl-1,3-benzothiazol-5-yl)oxy)-N-((3-nitro-4-((tetrahydro-2H-pyran-4-ylmethyl)amino)phenyl)sulfonyl)benzamide] displayed a Ki of 10.6 nM.

In turn, `CN(C)CCCNc1ccc(S(=O)(=O)NC(=O)c2ccc(N3CCN(CC4=C(c5ccc(Cl)cc5)CC(C)(C)CC4)CC3)cc2Oc2ccc(F)cc2)cc1[N+](=O)[O-]` [Example 139, 4-(4-{[2-(4-chlorophenyl)-4,4-dimethylcyclohex-1-en-1-yl]methyl}piperazin-1-yl)-N-[(4-{[3-(dimethylamino)propyl]amino}-3-nitrophenyl)sulfonyl]-2-(4-fluorophenoxy)benzamide] came in with a Ki of 0.125 nM.

The values are drawn from US8952157B2, “Apoptosis-inducing agents for the treatment of cancer and immune and autoimmune diseases” (AbbVie Inc., priority 2008, dated 2015).
